Test results from US20220048915A1 (SHANGHAI PHARMACEUTICALS HOLDING CO., LTD., priority 2018, published 2022).

Legend:
[1] = Pharmacokinetic properties in mice; assay type: in vivo, ICR mice
Description: Forty-eight male ICR mice, weighing 18-22 g (provided by Shanghai Xipuerbikai Laboratory Animal Co., Ltd, Certificate No.: 20130016008116). The mice were […] for 12-16 hours before the experiment but water was allowed.
Blood samples were collected from the fundus vein of mice before and at 2, 5, 15, 30, 60, 90, 120, 240, 480, 600, and 1440 minutes of the administration, respectively.
Blood samples were collected from the fundus vein of mice before and at 5, 15, 30, 60, 90, 120, 240, 480 and 1440 minutes of administration, respectively.
2-3 time points were taken for each mouse. The mice were sacrificed at 5, 15, 30, 60 and 1440 minutes after the administration (3 mice per time point), and the brains were taken, rinsed with saline, dried on filter paper and weighed.
Blood samples were centrifuged at 8000 rpm for 5 minutes, and supernatant plasma was taken. To 50 μL of plasma samples was added 300 μL of acetonitrile containing internal standard (propranolol, 25 ng/mL) to precipitate the protein. After vortexing for 10 minutes and centrifuging at 6000 g and 4° C. for 10 minutes, the supernatant was taken and placed in a 96-well plate for determination of drug concentration in plasma by UPLC/MS-MS.

BV-2 cells = assay: Inhibition of inflammation in LPS-stimulated BV-2 cells (ELISA of inflammatory factors); assay type: cell-based; conditions: Mus musculus, 100 ng/mL LPS 4 hours
Description: Normal cultured 8th passage BV-2 cells were taken, and inoculated separately in 96-well plates at a certain cell density. The cell culture plates were cultured at 37° C. and 5% CO2 for 24 hours.
After inoculating the plate for 24 hours, the cell culture medium was removed, and then 100 μL of a 4-fold gradient dilution compound starting from 10,000 nM prepared in DMEM+10% FBS, where High control and Low control contained 0.1% DMSO without compound. With 100 μL per well, the cell culture plate was cultured at 37° C. with 5% CO2 for one hour.
The compound-containing cultures were removed. 100 ng/mL of LPS was prepared with DMEM+10% FBS culture medium, and then the compound was diluted in a 4-fold gradient from 10,000 nM with LPS-containing culture medium. In low control, the compound was replaced with 0.1% DMSO. In High control, 0.1% DMSO was prepared with culture medium without LPS. 100 μL per well, and the cell culture plates were cultured at 37° C. with 5% CO2 for 4 hours.
After 4 hours of LPS stimulation, 110 μL of the culture solution was aspirated, and centrifuged at 2000 rpm for 2 minutes. A further 90 μl of supernatant was aspirated and immediately put into −20° C. for freezing.
ELISA kits were used to detect the expression of inflammatory factors such as IL-10, TNFα, etc. The OD450 signal values were measured by microplate reader. The in vitro inhibitory activity of the compounds was calculated according to the following formula: Inhibition rate: Inhibition rate (%)=(signal value of control−signal value of administration)/(high signal value of control−low signal value of control)×100%. And according to the inhibition rate of each concentration, Graphpad Prism 5.0 was used to curve fit the […] signal values at each concentration and calculate the corresponding IC50, which is shown in Table 1.

[2] = male, ICR, mouse, plasma, po 10 mg/kg

**Q.** What does the source list for `O=c1ncn2nc(Oc3ccc(F)cc3F)ccc2c1-c1c(Cl)cccc1Cl` [Compound I-4, 5-(2,6-dichlorophenyl)-2-(2,4-difluorophenoxy)-6H-pyrimido[1,6-b]pyridazin-6-one]?
**A.** clearance rate as fraction of that of the positive compound [1]: 4/11; absorption compared with the positive compound VX-745 at the same dose ([1]; 10 mg/kg): significantly higher; AUC relative to that of the positive compound ([1]; 10 mg/kg, 5-1440 minutes): 4.8 times; Thalf (iv) ([1]; iv 3 mg/kg): 2.5 h; clearance ([1]; male, ICR, mouse, plasma, iv 3 mg/kg): 6.67 mL/min/kg; Vd ([1]; male, ICR, mouse, plasma, iv 3 mg/kg, read-out: Vss (iv)): 1.2 L/kg; Cmax [1, 2]: 3000 ng/mL; MRT [1, 2]: 4.4 h; Tmax [1, 2]: 1.5 h; BA ([1]; po 10 mg/kg vs iv 3 mg/kg): 36.8%; AUClast (po) ([1]; po 10 mg/kg, 5-1440 minutes): 8944 (h)*(ng/mL); Emax (BV-2 cells; read-out: BV-2 Max Inh. (%)): 100%; IC50 (BV-2 cells; read-out: BV-2 Rf IC50): 6.47 nM
